Laboratory results as given in patent US20260167675A1, “VIRAL PEPTIDES AND USES THEREOF” (priority 2022, published 2026).

Tested on: human HLA-A11
Experiment: Flow cytometry binding of a pan HLA-A antibody against K562/HLA-A11 cells pulsed with HBV POL606-616 peptides (peptide loading)
Format: cell-based
Conditions: maximum MFI pulsed / maximum MFI un-pulsed cells, loaded if S/N > 1.1; for S/N Peptide Concentration (33 μg/ml): K562/HLA-A11 cells pulsed with 33 μg/ml peptide; for S/N Peptide Concentration (100 μg/ml): K562/HLA-A11 cells pulsed with 100 μg/ml peptide
Procedure: The present Example was designed to assess loading of HBV POL606-616 peptides on HLA-A11 in K562 cells engineered to express human HLA-A11 (K562/HLA-A11 cells). To assess loading of HBV POL606-616 peptides on HLA-A11, K562 cells engineered to express human HLA-A11 (K562/HLA-A11 cells) were pulsed by resuspending the cells in AIM V medium (Gibco. Catalog #31035-025) at a density of 1×10^6 cells/ml followed by the addition of 10 μg/ml human β2-microglobulin (hB2M; EMID Millipore Catalog #475828) and either 100 μg/ml or 33 μg/ml of the indicated peptide (Table 14).
K562/HLA-A11 cells were then incubated overnight at 37° C. Peptide-pulsed cells were then harvested and plated in staining buffer (PBS, without Calcium and Magnesium (Corning, Reference #21-031-CV)+2% FBS (Seradigm, Lot #238B15)) at a density of 200,000 cells per well in a 96-well V-Bottom plate. Cells were incubated with three-fold serial dilutions (5.1 pM-100 nM) with a pan HLA-A antibody (Novus, Catalog #DDX0250P-100) for 30 minutes at 4° C., washed once in staining buffer, and incubated with an Alexa-647 conjugated secondary antibody (Jackson ImmunoResearch, Catalog #115-606-071) at 5 µg/ml for 30 minutes at 4° C. Cells were again washed once in staining buffer and stained with viability dye (CellTrace™ Violet Cell Proliferation Kit, Thermo-Fisher Cat #C34557) for 30 minutes at 4° C. Lastly, cells were washed once in staining buffer and fixed using a 50% solution of BD Cytofix (BD, Catalog #554655). Samples were run and analyzed on an IntelliCyt iQue flow cytometer to calculate mean fluorescence intensity (MFI) on live cells. MFI values were plotted in GraphPad Prism. The secondary antibody alone condition (i.e., no primary antibody) for each dose-response curve was also included in the analysis as a continuation of the three-fold serial dilution and was represented as the lowest dose. The signal-to-noise (S/N) was calculated by dividing the maximum MFI on the pulsed cells by the maximum MFI on un-pulsed K562/HLA-A11 cells (Table 15). Peptides were determined to load if the S/N from pulsed cells/un-pulsed cells was greater than 1.1.

| Sequence | S/N Peptide Concentration (33 μg/ml) | S/N Peptide Concentration (100 μg/ml) |
| --- | --- | --- |
| GSLPQEHIIQK (Hepatitis B virus) [HBV POL606-616 V4] | 1.5 | 1.5 |
| GSLPQEHIVQK (Hepatitis B virus) [HBV POL606-616 V1] | 1.6 | 1.4 |
| GTLPQEHIVHK (Hepatitis B virus) [HBV POL606-616 V2] | 1.0 | 1.1 |
| GTLPQEHIVQK (Hepatitis B virus) [HBV POL606-616 V3] | 1.6 | 1.5 |
